Assay results published in patent publication US20170106017A1 (priority 2014, published 2017).
Where two headings read alike, the source gives them in different places.

What was measured:
AD patients = conditions: 1-2 mg/kg/infusion, 6 months
ALS patients [1] = conditions: for mean decrease in ALSFRS-R score: 3-month off-drug follow-up; for estimated ALSFRS-R slope: patients less than the baseline median wr-CRP; for estimated ALSFRS-R slope decline: patients with baseline wrCRP at or above the median
[2] = tested on: G93A SOD1 congenic strain of mice; conditions: preliminary studies (McGrath et al., 2010); cited from earlier work
ALS patients [3] = conditions: for ALSFRS-R level over the course of treatment: 1-2 mg/kg/infusion, 6 months
Experimental: Patients diagnosed with ALS are treated with chlorite over the course of 6 months. Based upon the initial concentration of IL-18 at the baseline or its baseline level, patients are sorted into two groups. Patients with baseline level of IL-18 higher than 60 pg/mL are assigned in IL-18-high group and patients with baseline level of IL-18 lower than 60 pg/mL are assigned in IL-18-low group. Both groups are treated with 1-2 mg/kg/infusion chlorite over the course of 6 months. ALSFRS-R scores and IL-18 levels are recorded at different time points during the treatment and compared between IL-18-high and IL-18-low groups.

ALS patients [4] = conditions: 1-2 mg/kg/infusion, at least 6 months
PD patients = conditions: 1-2 mg/kg/infusion, 6 months
[5] = tested on: CD16 expression on CD16 bright monocytes; conditions: 0.2-3.2 mg/kg single dose, 24 hours after dosing
LPS = conditions: for responders with decreased LPS: at least 6 months of treatment
Experimental: (§1) A randomized, double-blind, placebo-controlled study was administered over six cycles. Patients were treated with chlorite 2 mg/kg/infusion, or placebo. […] Samples from both responders and non-responders were collected and tested at different time points, e.g., at baseline (pre-dose Cycle 1, Week 1), 1-month, 2-month, 3-month, 4-month, 5-month and 6-month. ALSFRS-R scores and biomarkers levels were measured in responders and non-responders at selected time points and compared to the placebo group.

IL-18 [6] = conditions: 1-2 mg/kg/infusion, 6 months; for plasma level of IL-18 after treatment: responders
Experimental: Thirty two patients diagnosed with ALS were treated with chlorite over the course of 6 months. The initial plasma concentration of IL-18 in each patient was recorded and set as the baseline level. Patients were treated with 1-2 mg/kg/infusion chlorite over the course of 6 months. ALSFRS-R scores and IL-18 levels were recorded at different time points during the treatment and compared with the initial concentration.

ALS patients [7] = conditions: for decline in vital capacity: at least 6 months of treatment
Experimental: as §1

IL-18 [8] = tested on: IL-18
Experimental: A randomized, double-blind, placebo-controlled study was administered over six cycles. Patients were treated with chlorite 2 mg/kg/infusion, or placebo. Patients were scheduled to receive a total of 20 infusions over 6 cycles during a 25-week (or 6-month) treatment period. […] Levels of biomarkers can be measured with techniques known in the art, e.g., ELISA or flow cytometry.

With sodium chlorite [NP001] as the substance, how does the “treatment of AD patients” value (AD patients) read?
Its value is “capable of treating AD patients”.

What about the “effect on ALSFRS-R slope and change from baseline compared to placebo” value (ALS patients [1]; 1 mg/kg) of the same substance?
The value was “minimal or no effect dose”.

And the “mean decrease in ALSFRS-R score” value (ALS patients [1]; 1 mg/kg)?
The value was −3.7.

And the “estimated ALSFRS-R slope” value (ALS patients [1]; 1 mg/kg)?
Its value is −1.38.

And the “estimated ALSFRS-R slope decline” value (ALS patients [1]; 1 mg/kg)?
Its value is −0.73 points per month.

What about the “mean decrease in ALSFRS-R score” value (ALS patients [1]; 2 mg/kg) of the same substance?
The value was −3.3.

And the ALSFRS-R mean slope (ALS patients [1]; 2 mg/kg, 6 months of treatment (Weeks 1 through 25))?
Its ALSFRS-R mean slope is −0.77 points per month.

What about the “percent change in ALSFRS-R mean slope compared to placebo” value (ALS patients [1]; 2 mg/kg, 6 months, concurrent placebo) of the same substance?
Its value is 13%.

What about the “improvement in rate of progression compared to placebo” value (ALS patients [1]; 2 mg/kg, baseline wrCRP at or above the median, p=0.2) of the same substance?
The value was 41%.

And the “estimated ALSFRS-R slope” value (ALS patients [1]; 2 mg/kg)?
Its value is −0.87.

And the “estimated ALSFRS-R slope decline” value (ALS patients [1]; 2 mg/kg)?
Its value is −0.55 points per month.

And the “slowing of change in ALSFRS-R from baseline” value (ALS patients [1]; 2 mg/kg, with addition of matched historical placebo control patients)?
The value was 21%.

And the “improvement in the rate of progression compared to combined placebo controls” value (ALS patients [1]; 2 mg/kg, with matched historical placebo controls, p=0.16)?
The value was 19%.

What about the “slowing of change in ALSFRS-R from baseline” value (ALS patients [1]; 2 mg/kg, without addition of matched historical placebo control patients) of the same substance?
The value was 17%.

What about the “slower functional decline (residual) in mean change in ALSFRS-R compared to placebo” value (ALS patients [1]; high dose (2 mg/kg), off-drug follow-up) of the same substance?
Its value is 11%.

What about the “survival, treated compared to control mice” value [2] of the same substance?
Its value is “significant survival improvement”.

And the “ALSFRS-R level over the course of treatment” value (ALS patients [3]; IL-18-high group (baseline IL-18 higher than 60 pg/mL))?
The value was “stabilizes”.

What about the “decrease in IL-18 baseline level” value (ALS patients [3]; IL-18-high vs IL-18-low group) of the same substance?
The value was “can only be observed in IL-18-high group”.

What about the “ALSFRS-R level over the course of treatment” value (ALS patients [3]; IL-18-low group (baseline IL-18 lower than 60 pg/mL)) of the same substance?
The value was “no stabilization”.

And the “relationship between mean ALSFRS-R levels and mean baseline levels of biomarkers” value (ALS patients [4])?
Its value is “linear relationship with a positive slope”.

And the “treatment of Parkinson's patients” value (PD patients)?
The value was “capable of treating Parkinson's patients”.

And the “level of CD16 expression on the CD16 bright subset of monocytes vs placebo” value [5]?
The value was “Dose-dependent changes”.

And the “responders with decreased LPS” value (LPS; high dose responders)?
Its value is 70%.

What about the “responders with decreased LPS” value (LPS; low dose group responders (8)) of the same substance?
Its value is “half”.

What about the “LPS level at week 24” value (LPS; non-responders, baseline about 0.35) of the same substance?
Its value is “about 0.2”.

What about the “decrease of LPS level from baseline” value (LPS; non-responders, week 24) of the same substance?
The value was “about 40%”.

And the “LPS level after treatment” value (LPS; responders, week 24, baseline about 0.3)?
Its value is “undetectable level”.

And the “decrease of LPS level from baseline” value (LPS; responders, week 24, calculated with minimum detection level about 0.075)?
The value was “about 75%”.

What about the number of non-responders (IL-18 [6]; 32 ALS patients) of the same substance?
The number of non-responders was 22.

And the number of responders (IL-18 [6]; 32 ALS patients)?
The number of responders was 10.

And the “plasma level of IL-18 after treatment” value (IL-18 [6])?
The value was “decreased”.

And the “plasma level of IL-18 after treatment” value (IL-18 [6]; listed as chlorite/NP001)?
The value was “capable of lowering IL-18 plasma level”.

And the “disease progression of ALS patients” value (ALS patients [7]; 2 mg/kg, patients with high plasma level of IL-18, IL-6, INF-g, and CPR)?
The value was “capable of slowing the disease progression”.

And the “percentage of patients who did not progress (responders)” value (ALS patients [7]; high dose group (2 mg/kg), 6-month treatment period)?
The value was 27%.

What about the “percentage of non-progressing patients relative to placebo group” value (ALS patients [7]; high dose group vs placebo (11%)) of the same substance?
Its value is “approximately 2.5 times”.

And the “decline in vital capacity” value (ALS patients [7]; non-responders, 1 mg)?
The value was −17.7+/−17.9.

And the “decline in vital capacity” value (ALS patients [7]; non-responders, 2 mg)?
Its value is −14.5+/−13.2.

And the “ALSFRS-R score over the 6-month treatment period” value (ALS patients [7]; responders)?
Its value is “remained stable”.

And the “decline in vital capacity” value (ALS patients [7]; responders, 1 mg)?
Its value is −8.95+/−10.1.

And the “decline in vital capacity” value (ALS patients [7]; responders, 2 mg)?
Its value is −3.76+/−5.7.

And the “responders with decreased IL-18” value (IL-18 [8]; high dose responders, at least 6 months of treatment)?
The value was 80%.

And the “responders with decrease in IL-18” value (IL-18 [8]; low dose group responders (8), at least 6 months of treatment)?
The value was 1 patient.

What about the “change of plasma IL-18 level from baseline” value (IL-18 [8]; non-responders, after 25 weeks) of the same substance?
Its value is “increase”.

And the “change of plasma IL-18 level from baseline” value (IL-18 [8]; responders, after 25 weeks of treatment)?
Its value is “decrease”.
